Patent US8828696B2, “Use of Penicillin G Procaine as a selective antimicrobial agent in the production of alcohol by fermentation” (Lallemand Specialites, Inc, priority 2008, dated 2014)
“And” between values parts separate entries of the source, which are not always exact repeats. Identical values can stand only once.

Assays:
Format in all cases: cell-based
contaminating bacteria = experiment: Alcohol production plant trial, fermentor drop data (50 m/g/y dry grind, corn)
Experimental: This trial was conducted at a 50 million gallon per year (m/g/y) dry grind fuel alcohol production facility utilizing corn as a fermentation substrate. Batch yeast propagation and fermentation process were utilized. Antimicrobials were added to the fermentor during the fill cycle at approximately 30% fill.
No other changes were made to the process or chemical additions that would influence the fermentation kinetics monitored during 3 sets of fermentor batches listed below. The fermentation data was accumulated at the end (drop) of the fermentation process for each of the fermentors. Fermentation kinetics was measured for three batch cycles including:
Set 1—“Pre Penicillin G Procaine trial”-10 fermentor batches using a level of 0.5 ppm Virginiamycin. See results in Table 2.
Set 2—“Penicillin G Procaine trial”-10 fermentor batches using a level of 0.5 ppm of Penicillin G Procaine. See results in Table 3.
Set 3—“Post Penicillin G Procaine trial”-10 fermentor batches using a level of 0.5 ppm of Virginiamycin. See results in Table 4.

Lactobacillus fermentum = experiment: Comparative efficacy analysis Virginiamycin vs. Penicillin G Procaine, growth in MRS broth, 24 well plate; conditions: industry isolated Lactobacillus fermentum; ppm of the fermentation mixture
Text: The most commonly found microorganism in fuel ethanol producing plants is the Lactobacillus fermentum bacterium and is considered as an “industry normal” bacterium. This example compares the use of a Bactenix® line of products, Penicillin G Procaine-antibiotic versus Virginiamycin-antibiotic to control “industry normal” Lactobacillus fermentum bacterium. This trial uses an alcohol water mixture to assure total dissolving of antibiotics. This assures that the correct concentrations of antibiotics are going into the test wells and thereby preventing under dosing during the trial. All bacteria tested were industry specific isolates that were obtained from actual corn mash samples from fermentation alcohol production plants. The trial was set up as follows: • 1. Dissolve 0.1 g of each of the antibiotics in 1 ml water and then add 5 ml of ethanol, vortex and bring up to 10 ml with sterile water to from a suspension. • 2. Dilute the previous suspension 1:10 with sterile water. This gives a one mg/ml concentration. • 3. Filter the suspension by running through a 0.2 μm syringe filter. • 4. Add four μl broth in a centrifuge then add antibiotics to MRS (DeMan, Rogosa and Sharpe) broth at the concentrations required for the test. • 5. Take four μl of a fresh 24-hour culture of the target organisms and add to the corresponding empty wells in a pre-labeled 24 well tissue culture plate. • 6. Pipette one ml of the appropriate antibiotic media to each well of the plate. • 7. Incubate at 33° C. for 24 hours. • 8. Read plates for bacterial growth and re-incubate the plates at 33° C. • 9. After 48 hours read and report the final results.

[1] = test system: Saccharomyces cerevisiae yeast; experiment: Laboratory fermentation trial: formation of alcohol and lactic acid (HPLC)
Experimental: A study was conducted to determine the degree of impact of the fermentation antimicrobial Penicillin G Procaine and Penicillin G potassium during alcohol production by fermentation. The antimicrobial impact was inferred by conducting a series of fermentations and measuring if the above said antibiotics interfered with the cell growth and the fermentation function of Saccharomyces cerevisiae yeast used in the fermentation phase. This study provided analysis of what impact, if any, the Penicillin G Procaine or Penicillin G Potassium has on the yeast during lab scale fermentations, specifically BioFerm® XR yeast from North American Bioproducts Corporation (NABC). This study observed the ability of yeast to replicate and ferment a corn mash substrate with and without the presence of Penicillin G Procaine or Penicillin G Potassium. This study was set up in a series of fermentation vessels. All antibiotic concentrations were tested in triplicate. Cell counts were done on one flask for each treatment at 12, 24, 36 and 48 hours and testing of the fermentation reactions by HPLC was also performed at 12, 24, 36 and 48 hours. The experiment was set as follows: 3. Fermentations were set up using 31% solids corn mash using saccharifying enzymes and the following procedure: A. Yeast Conditioning: • 1. Add 2 g yeast to 10 ml sterile water for each 3 flasks to test, (14 g yeast to 70 ml water) into a sterile 250 ml flask and place in water bath set to 100° F. • 2. Incubate at 100° F. for 30 minutes with occasional mixing. • 3. Remove flasks from water bath and divide suspension between the all flasks for the trial. B. Fermentation Procedure • 1. To prepared mash, add the following. • a. Add 0.58 g urea/liter mash and mix. • b. Add 0.2 ml GA per liter and mix. • 2. Remove sample for background HPLC testing. • 3. Add antibiotic solution to labeled sterile 250 ml flasks. • 4. Add hydrated yeast suspension to mash and mix well. • 5. Add sterile stir bar to each flask and add about 150 ml mash into each 250 ml flask for a total of 21 flasks. • 6. Cover each flask with a gas trap in a sterilized stopper. • 7. Place in a 33° C. water bath with continuous mixing at 280 rpm at 75% power. • 8. Remove sample at 12 hr interval to perform cell count, viability and budding. • 9. Incubate sample up to 48 hours, enough time for complete fermentation • 10. Collect samples at the following times for cell counts and HPLC testing: 12 hours; 24 hours; 36 hours and 48 hours The proper functioning of the yeast is often attributed to the higher efficiency with which it can convert the sugars formed in a fermentation process to the desired alcohol. Also the number of yeast cells in a fermentation mix is an important factor as it will be entropically favored to convert the available sugar molecules to ethanol and carbon dioxide. The sugar in the fermentation mix apart from being converted to ethanol is also used by the yeast for its metabolism and growth and by the concerned “industry normal” Lactobacillus fermentum bacteria converting the sugar to lactic acid.

[2] = Penicillin G Procaine trial 0.5 ppm compared with Virginiamycin sets
[3] = Set 2 'Penicillin G Procaine trial', 0.5 ppm, 10 Batch average
[4] = Set 2 'Penicillin G Procaine trial', 0.5 ppm, drop data, single fermentor batch

Structure (SMILES)	% Lactic Acid ([1]; 5 ppm, 12 hours) [%]	% wt EtOH ([1]; 5 ppm, 12 hours) [% wt]	% Lactic Acid ([1]; 5 ppm, 24 hours) [%]	% wt EtOH ([1]; 5 ppm, 24 hours) [% wt]	% Lactic Acid ([1]; 5 ppm, 36 hours) [%]	% wt EtOH ([1]; 5 ppm, 36 hours) [% wt]	% Lactic Acid ([1]; 5 ppm, 48 hours) [%]	% wt EtOH ([1]; 5 ppm, 48 hours) [% wt]	% Lactic Acid ([1]; 15 ppm, 12 hours) [%]	% wt EtOH ([1]; 15 ppm, 12 hours) [% wt]	% Lactic Acid ([1]; 15 ppm, 24 hours) [%]	% wt EtOH ([1]; 15 ppm, 24 hours) [% wt]	% Lactic Acid ([1]; 15 ppm, 36 hours) [%]	% wt EtOH ([1]; 15 ppm, 36 hours) [% wt]	% Lactic Acid ([1]; 15 ppm, 48 hours) [%]	% wt EtOH ([1]; 15 ppm, 48 hours) [% wt]	% Lactic Acid ([1]; 30 ppm, 12 hours) [%]	% wt EtOH ([1]; 30 ppm, 12 hours) [% wt]	% Lactic Acid ([1]; 30 ppm, 24 hours) [%]	% wt EtOH ([1]; 30 ppm, 24 hours) [% wt]	also measured
CC1(C)S[C@@H]2[C@H](NC(=O)Cc3ccccc3)C(=O)N2[C@H]1C(=O)O.CCN(CC)CCOC(=O)c1ccc(N)cc1 [Penicillin G Procaine]	0.082	6.21	0.098	9.24	0.108	11.14	0.104	11.94	0.085	6.16	0.099	9.13	0.106	11.13	0.099	11.98	0.081	6.34	0.098	9.16	decrease of lactic acid production (contaminating bacteria; [2]): about a quarter percent; increase of ethanol production (contaminating bacteria; [2]): about half a percent; production increase of ethanol per fermentor (contaminating bacteria; [2]): about 2,500 gallons; Acetic % (contaminating bacteria; [3]): 0.03%; EtOH v/v % (contaminating bacteria; [3]): 15.98 v/v %; Glucose % (contaminating bacteria; [3]): 0.28%; Lactic % (contaminating bacteria; [3]): 0.24%; Acetic % (contaminating bacteria; [4]): 0.03% and 0.02% and 0.05% and 0.04%; Glucose % (contaminating bacteria; [4]): 0.28% and 0.30% and 0.27% and 0.29%; Lactic % (contaminating bacteria; [4]): 0.28% and 0.19% and 0.21% and 0.26% and 0.25% and 0.23% and 0.24%; minimum inhibitory concentration (Lactobacillus fermentum): 0.1 ppm; % Lactic Acid ([1]; 30 ppm, 36 hours): 0.103%; % wt EtOH ([1]; 30 ppm, 36 hours): 11.18 % wt; % Lactic Acid ([1]; 30 ppm, 48 hours): 0.100%; % wt EtOH ([1]; 30 ppm, 48 hours): 11.91 % wt
CC1(C)S[C@@H]2[C@H](NC(=O)Cc3ccccc3)C(=O)N2[C@H]1C(=O)[O-].[K+] [Penicillin G Potassium]	0.083	6.16	0.100	9.12	0.108	11.12	0.104	11.89	0.081	6.05	0.100	9.15	0.105	11.05	0.100	11.92	0.082	6.07	0.096	9.13	% Lactic Acid ([1]; 30 ppm, 36 hours): 0.106%; % wt EtOH ([1]; 30 ppm, 36 hours): 11.12 % wt; % Lactic Acid ([1]; 30 ppm, 48 hours): 0.101%; % wt EtOH ([1]; 30 ppm, 48 hours): 11.83 % wt
